Laboratory results as given in patent US20250270584A1, “Gene editing to provide insect resistance in crops” (The Regents of the University of California, priority 2022, published 2025).

Legend:
BoGLR3.3 = assay: Single-cell Ca2+ imaging in COS-7 cells expressing BoGLR3.3; assay type: cell-based, Brassica oleracea; conditions: COS-7 cells expressing BoGLR3.3 alone, external Glu application
Procedure: (§1) The full-length coding sequences were amplified from cDNA of Arabidopsis (GLR3.1, GLR3.3, and GLR3.6), B. oleracea (BoGLR3.3) or O. sativa (OsGLR3.1). The coding sequences of GLR3.3-CD2 and GLR3.3-T3 were generated through site-directed mutagenesis with GLR3.3 as template. All coding sequences respectively inserted into a dual-promoter vector pBudCE4.1 (Invitrogen) with coding sequence of GCaMP6s for co-expression in […] or COS-7 cells as previously described. Mammalian cells were cultured in DMEM supplemented with 10% FBS in a 5% CO2 incubator at 37° C. under controlled humidity, and transfected using a Lipofectamine 3000 Transfection Reagent kit (Invitrogen).
(§2) COS-7 cells expressing GCaMP6s together with various GLR proteins were monitored by a Zeiss AxioObserver ZI inverted microscope (Ivision 4.5 software) with 2-s intervals under a 20× objective as previously described. The standard solution for Ca^2+ imaging contained 120 mM NaCl, 3 mM KCl, 1 mM MgCl2, 1.2 mM NaHCO3, 10 mM glucose, 10 mM HEPES, pH 7.5. At 60 s after initiation of the imaging procedure, the bath was perfused using a peristaltic pump with the standard solution supplemented with 100 mM glutamate to elicit Ca^2+ entry through active channels.

OsGLR3.1 = molecular target: T1, OsGLR3.1 (Oryza sativa subsp. japonica, UniProt Q7XP59); assay: Single-cell Ca2+ imaging in COS-7 cells expressing OsGLR3.1; assay type: cell-based; conditions: COS-7 cells expressing OsGLR3.1 alone, external Glu application
T1 construct: expressed in transfected cells; host or cells: COS-7
T1 sequence (Q7XP59 21-938): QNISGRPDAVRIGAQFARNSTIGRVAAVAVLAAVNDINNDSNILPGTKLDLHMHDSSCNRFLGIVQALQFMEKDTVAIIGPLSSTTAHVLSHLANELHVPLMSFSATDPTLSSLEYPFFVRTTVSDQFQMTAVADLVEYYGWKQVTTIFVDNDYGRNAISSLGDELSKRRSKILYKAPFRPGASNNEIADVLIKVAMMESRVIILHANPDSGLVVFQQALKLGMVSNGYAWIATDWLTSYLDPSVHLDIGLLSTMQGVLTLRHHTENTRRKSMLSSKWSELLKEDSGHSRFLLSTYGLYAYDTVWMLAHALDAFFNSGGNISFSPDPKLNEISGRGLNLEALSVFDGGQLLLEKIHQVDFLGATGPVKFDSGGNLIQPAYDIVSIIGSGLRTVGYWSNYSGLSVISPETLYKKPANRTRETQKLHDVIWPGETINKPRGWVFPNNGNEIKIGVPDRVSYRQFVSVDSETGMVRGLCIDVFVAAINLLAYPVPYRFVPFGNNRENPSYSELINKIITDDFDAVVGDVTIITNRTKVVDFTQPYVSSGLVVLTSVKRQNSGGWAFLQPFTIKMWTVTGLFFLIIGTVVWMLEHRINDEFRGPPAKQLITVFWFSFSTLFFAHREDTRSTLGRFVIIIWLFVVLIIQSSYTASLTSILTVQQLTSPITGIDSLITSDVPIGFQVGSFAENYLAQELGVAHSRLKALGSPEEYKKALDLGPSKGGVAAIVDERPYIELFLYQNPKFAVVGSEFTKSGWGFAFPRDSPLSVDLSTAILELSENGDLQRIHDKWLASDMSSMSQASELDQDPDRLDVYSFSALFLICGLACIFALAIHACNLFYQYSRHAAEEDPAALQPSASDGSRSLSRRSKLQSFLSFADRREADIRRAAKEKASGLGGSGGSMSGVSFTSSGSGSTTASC
Procedure: as §1, §2

GLR3.3 channel [1] = molecular target: T2, GLR3.3 channel (Arabidopsis thaliana, UniProt Q9C8E7); assay: Single-cell Ca2+ imaging in COS-7 cells expressing GLR3.3; assay type: cell-based; parameters: expressed in transfected cells; host or cells: COS-7 (Ca2+ imaging); conditions: COS-7 cells expressing GLR3.3 alone, external Glu application (100 mM glutamate)
T2 sequence (Q9C8E7 24-933): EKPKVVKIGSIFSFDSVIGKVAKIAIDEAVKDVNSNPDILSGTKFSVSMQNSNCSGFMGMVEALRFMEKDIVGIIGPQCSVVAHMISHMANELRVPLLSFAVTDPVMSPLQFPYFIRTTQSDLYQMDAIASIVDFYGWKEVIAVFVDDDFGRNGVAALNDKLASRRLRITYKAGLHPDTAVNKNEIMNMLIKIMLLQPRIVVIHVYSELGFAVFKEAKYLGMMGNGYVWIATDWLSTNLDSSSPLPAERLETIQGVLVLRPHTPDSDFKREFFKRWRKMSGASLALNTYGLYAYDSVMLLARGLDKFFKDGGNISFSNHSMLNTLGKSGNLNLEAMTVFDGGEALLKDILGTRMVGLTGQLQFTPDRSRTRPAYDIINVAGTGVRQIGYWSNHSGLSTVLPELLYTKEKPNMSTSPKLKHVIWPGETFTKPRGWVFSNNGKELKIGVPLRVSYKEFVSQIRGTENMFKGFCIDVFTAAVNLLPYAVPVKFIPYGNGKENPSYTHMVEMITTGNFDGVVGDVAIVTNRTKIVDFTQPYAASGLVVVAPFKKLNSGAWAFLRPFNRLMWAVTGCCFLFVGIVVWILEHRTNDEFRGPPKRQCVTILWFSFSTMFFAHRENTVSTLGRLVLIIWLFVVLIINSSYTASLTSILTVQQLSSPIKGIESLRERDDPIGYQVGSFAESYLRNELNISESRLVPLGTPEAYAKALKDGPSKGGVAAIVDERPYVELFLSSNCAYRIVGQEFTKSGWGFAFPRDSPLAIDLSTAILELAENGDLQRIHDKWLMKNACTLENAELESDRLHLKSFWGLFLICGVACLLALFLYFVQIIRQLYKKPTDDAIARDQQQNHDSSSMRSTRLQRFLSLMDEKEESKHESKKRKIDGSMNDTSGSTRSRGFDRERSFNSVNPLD
Procedure: as §1, §2

GLR3.3 channel [2] = molecular target: T2, GLR3.3 channel; assay: Whole-cell patch-clamp recording in HEK293 cells expressing GLR3.3; assay type: cell-based; parameters: expressed in transfected cells; host or cells: COS-7 (Ca2+ imaging) / HEK293 (patch clamp); conditions: HEK293 cells expressing GLR3.3 alone, free internal Ca2+ in pipette 1 μM, external Glu
Procedure: The whole-cell patch-clamp recordings were performed on an Axopatch 200B patch-clamp configuration with a Digidata 1550 digitizer (Axon Instruments) as described previously. Clampex 10.7 and Clampfit 10.7 software (Axon Instruments) were used for data acquisition and analysis.
To record Ca^2+ currents across plasma membrane of HEK293 cells, the bath solution contained 100 mM Na-glutamate, 40 mM NaCl, 5 mM KCl, 2 mM MgCl2, 10 mM CaCl2, 10 mM HEPES, and 10 mM glucose (pH 7.5, adjusted with NaOH). The pipette solution with 0 nM free Ca^2+ contained 140 mM CsCl, 5 mM EGTA, and 10 mM HEPES (pH 7.5, adjusted with CsOH), while the pipette solution with 1 μM free Ca^2+ contained 140 mM CsCl, 5 mM EGTA, 4.85 mM CaCl2) and 10 mM HEPES (pH 7.5, adjusted with CsOH). Free Ca^2+ was calculated with Webmaxc Standard software (https://somapp.ucdmc.ucdavis.edu/pharmacology/bers/maxchelator/webmaxc/webmaxcS.htm). A ramp voltage protocol of 2-s duration from −180 mV to +20 mV (holding potential 0 mV) was applied 1 min after achieving a whole-cell configuration, and currents were recorded every 20 s, with 5 repeats in total for each cell. The five current traces were used for statistical analysis to produce average current-voltage curves.

CaM7 = molecular target: T3, CaM7 (Arabidopsis thaliana, UniProt P59220); assay: ITC (isothermal titration calorimetry) assay of CBD peptides with 6His-CaM7; assay type: binding; conditions: ratio of KD values
T3 construct: made in house; host or cells: Escherichia coli BL21 (DE3)
Procedure: ITC was carried out at 25° C. on a MicroCal iTC200 instrument (GE Healthcare). 250 μM of peptides were titrated against 20 μM of 6His-CaM7 proteins (purified by size-exclusion chromatography using Superdex 200 Increase 10/300 GL, GE Healthcare) in the reaction buffer (25 mM HEPES, 100 mM NaCl, pH 7.5) with addition of 1 mM Ca^2+ or 2 mM EGTA. Titrations were performed by an automated sequence of 20 injections spaced at 150-s intervals to ensure complete equilibration, and raw data were analyzed with Origin software (version 7.0) supplied with the instrument.

Compound	Glu-activated [Ca2+]cyt change (BoGLR3.3)	Glu-activated [Ca2+]cyt change (OsGLR3.1)	Glu-activated [Ca2+]cyt change (GLR3.3 channel [1])	Glu-induced currents (GLR3.3 channel [2])	CaM binding affinity lower than that of wild type CBD (CaM7)
N[C@@H](CCC(=O)O)C(=O)O [Glu, glutamate]	rapid [Ca^2+]cyt increases	rapid [Ca^2+]cyt increases	rapid [Ca^2+]cyt increases	large inward currents	
CC(C)C[C@H](NC(=O)[C@H](CO)NC(=O)[C@H](CC(C)C)NC(=O)[C@H](Cc1ccccc1)NC(=O)[C@H](CCCNC(=N)N)NC(=O)[C@H](CCC(N)=O)NC(=O)[C@H](CC(C)C)NC(=O)[C@H](CCCNC(=N)N)NC(=O)[C@@H](NC(=O)[C@H](CO)NC(=O)[C@H](CC(=O)O)NC(=O)[C@H](Cc1c[nH]cn1)NC(=O)[C@H](CC(N)=O)NC(=O)[C@H](CCC(N)=O)NC(=O)[C@H](CCC(N)=O)NC(=O)[C@H](CCC(N)=O)NC(=O)[C@@H](N)CC(=O)O)[C@@H](C)O)C(=O)O [mutated CBD peptide]					approximately 10 fold
